Measurements from patent US7419961B2, “9a-azalides with anti-inflammatory activity” (Zambon S.p.A., priority 2002, dated 2008).
Values after ≈ are worked out from the molar mass of the structure shown.

Assays:
[1] = system: Enterococcus faecalis ATCC 29212; assay: Antibiotic activity, MIC in liquid culture medium; assay type: cell-based; details: ATCC29212, lowest concentration that completely inhibits visible growth, read-out: Enter. faec. ATCC 29212 MIC
Description: (§1) The MIC values were determined in liquid culture medium by the technique described in the “Manual of Clinical Microbiology, 7th edition (1999), American Society for Microbiology”.

[2] = system: Staphylococcus aureus ATCC 29213; assay: Antibiotic activity, MIC in liquid culture medium; assay type: cell-based; details: ATCC29213, lowest concentration that completely inhibits visible growth, read-out: Sta. aureus ATCC 29213 MIC
Description: as §1

[3] = system: Streptococcus pneumoniae ATCC 49619; assay: Antibiotic activity, MIC in liquid culture medium; assay type: cell-based; details: ATCC49619, lowest concentration that completely inhibits visible growth, read-out: Str. pneum. ATTC 49619 MIC
Description: as §1

[4] = system: mouse ear edema induced by PMA (phorbol myristate acetate); assay: Acute contact dermatitis: TPA-induced auricular edema; assay type: in vivo, CD1 mice; details: 500 μg/ear topical in TPDS, 30 min before TPA 0.01%, sacrifice 6 h later
Description: Groups of 5-6 CD1 mice (18-24 g) were used. • Administration of the Compounds All the macrolide derivatives were dissolved in Trans-phase Delivery System (TPDS), a vehicle containing benzyl alcohol 10%, acetone 40% and isopropanol 50%. 15 microliters of the compounds (500 μg), dissolved in TPDS, were applied topically to the internal surface of one ear; 30 minutes later, 12 microliters of a solution of tetradecanoyl phorbol acetate (TPA) at a concentration of 0.01% dissolved in acetone, were applied to the same area. Six hours later, the animals were sacrificed by inhalation of CO2. • Evaluation of the Results Two methods were used for assessing the auricular edema: • a) Weighing a defined portion of auricular pinna. • b) Measurement of auricular thickness using precision spring calipers. The degree of edema was calculated by subtracting the weight or the thickness of the untreated ear from that of the treated contralateral ear. To determine the degree of remission of the edema, the difference (weight or thickness) of the groups treated with TPA+macrolides relative to those treated with just TPA was compared. The activity of the macrolides was measured using the modified method of Zunic et al. (1998): MDL (Lysyl) GDP, a non-toxil muramyl dipeptide derivative inhibits cytokine production by activated macrophages and protects mice from phorbol ester- and oxazolone-induced inflammation (J. Invest. Dermatol., 111 (1), 77-82). The data relating to erythromycin and azithromycin refer to treatment in a single dose at 500 μg/ear.

[5] = system: Staphylococcus aureus ATCC 6538; assay: Antibiotic activity at 128 μg/ml; assay type: cell-based
Description: as §1

[6] = system: Streptococcus pyogenes ATCC 19615; assay: Antibiotic activity at 128 μg/ml; assay type: cell-based
Description: as §1

[7] = system: accumulation of neutrophils in the rat lung induced by LPS; assay: LPS-induced pulmonary inflammation in the rat; assay type: in vivo; details: oral single dose 100, 40 and 10 μmol/kg one hour before LPS 0.4 mg/kg endotracheally; 20 h; erythromycin: single oral dose 130 μmol/kg
Description: The rats were given a single dose of 0.4 mg/kg of LPS (E. coli, serotype 026:6) endotracheally, by the trans-oral route. Tracheal instillation was carried out under halothane anesthesia and 20 hours after the endotracheal administration of LPS/saline solution the animals were sacrificed by urethane overdose. • Washing
The lungs were washed with four aliquots each of 5 ml of saline solution with heparin 10 IU/ml. The cellular suspension was concentrated by low-speed centrifugation and the cellular pellet was suspended. • Cell Count and Differentiation
The total cell count was obtained using a hemocytometer.
The differential count was obtained from cytospin preparations stained with May-Grunwald-Giemsa (Tamaoki J., Tagaya E., Yamawaki I., Sakai N., Nagai A., Konno K., 1995. Effect of erythromycin on endotoxin-induced microvascular leakage in the rat trachea and lungs. Am. J. Respir. Crit. Care Med., 151, 1582-8). The rats received the test compounds orally at a dose of 100, 40 and 10 μmol/kg as a single dose administered orally one hour before exposure to LPS.
The ED/50 value is the dose that caused 50% reduction in the neutrophil count in the bronchial wash fluid.
The result for erythromycin relates to oral treatment in a single dose with 130 μmol/kg.

[8] = method a: weighing a defined portion of auricular pinna

| MIC [1] [µg/mL] | Compound | inhibition in vivo at 500 µg/ear [4, 8] [%] | also measured |
| --- | --- | --- | --- |
| > 128 | CC[C@H]1OC(=O)[C@H](C)[C@@H](O)[C@H](C)[C@@H](O[C@@H]2O[C@H](C)C[C@H](N(C)C)[C@H]2O)C(C)(O)C[C@@H](C)CN(CCCNCCCCCCNCc2ccccc2)[C@H](C)[C@@H](O)[C@]1(C)O (stereo partly drawn) [Compound 12] |  | MIC [2]: > 128 µg/mL; MIC [3]: 64 µg/mL (≈ 77.7 µM); inhibition in vivo at 500 µg/ear ([4]; method b: auricular thickness using precision spring calipers): 39.5% |
| > 128 | CC[C@H]1OC(=O)[C@H](C)[C@@H](O)[C@H](C)[C@@H](O[C@@H]2O[C@H](C)C[C@H]([N+](C)(C)[O-])[C@H]2O)C(C)(O)C[C@@H](C)CN(C)[C@H](C)[C@@H](O)[C@]1(C)O (stereo partly drawn) [Compound 1] | 56.7 | Sta. aureus ATCC 6538 128 (μg/ml) [5]: not active; Str. pyogen. ATTC 19615 128 (μg/ml) [6]: not active; ED/50 (dose that caused 50% reduction in the neutrophil count in the bronchial wash fluid) [7]: 10 µmol/kg |
|  | CC[C@H]1OC(=O)[C@H](C)[C@@H](O)[C@H](C)[C@@H](O[C@@H]2O[C@H](C)CC[C@H]2O)C(C)(O)C[C@@H](C)CN(CCCNCCNCc2nccs2)[C@H](C)[C@@H](O)[C@]1(C)O (stereo partly drawn) [Compound 13] | 44.7 |  |
| 64 (≈ 87.6 µM) | CC[C@H]1OC(=O)[C@H](C)[C@@H](O)[C@H](C)[C@@H](O[C@@H]2O[C@H](C)C[C@H](N(C)C)[C@H]2O)C(C)(O)C[C@H](C)CN(CCCNCc2nccs2)[C@H](C)[C@@H](O)[C@]1(C)O (stereo partly drawn) [Compound 6] |  | MIC [2]: 64 µg/mL (≈ 87.6 µM); MIC [3]: 8 µg/mL (≈ 10.9 µM) |
| 1 (≈ 1.36 µM) | CC[C@H]1OC(=O)[C@H](C)[C@@H](O[C@H]2C[C@@](C)(OC)[C@@H](O)[C@H](C)O2)[C@H](C)[C@@H](O[C@@H]2O[C@H](C)C[C@H](N(C)C)[C@H]2O)[C@](C)(O)C[C@@H](C)C(=O)[C@H](C)[C@@H](O)[C@]1(C)O [Erythromycin, erythromycin, reference compound] | 42 | MIC [2]: 0.25 µg/mL (≈ 0.341 µM); MIC [3]: 0.12 µg/mL (≈ 0.164 µM); ED/50 (dose that caused 50% reduction in the neutrophil count in the bronchial wash fluid) [7]: not active |
|  | CC[C@H]1OC(=O)[C@H](C)[C@@H](O)[C@H](C)[C@@H](O[C@@H]2O[C@H](C)C[C@H](N(C)C(C)=O)[C@H]2O)C(C)(O)C[C@@H](C)CN(C)[C@H](C)[C@@H](O)[C@]1(C)O (stereo partly drawn) [Compound 5] | 40.5 |  |
|  | CC[C@H]1OC(=O)[C@H](C)[C@@H](O)[C@H](C)[C@@H](O[C@@H]2O[C@H](C)C[C@H](N(C)C)[C@H]2O)C(C)(O)C[C@@H](C)CN(CCCNCc2c[nH]cn2)[C@H](C)[C@@H](O)[C@]1(C)O (stereo partly drawn) [Compound 8] | 29.7 |  |
|  | CC[C@H]1OC(=O)[C@H](C)[C@@H](O)[C@H](C)[C@@H](O[C@@H]2O[C@H](C)C=C[C@H]2O)C(C)(O)C[C@@H](C)CN(C)[C@H](C)[C@@H](O)[C@]1(C)O (stereo partly drawn) [Compound 3] | 34.4 |  |
|  | CC[C@H]1OC(=O)[C@H](C)[C@@H](O)[C@H](C)[C@@H](O[C@@H]2O[C@H](C)C[C@H]([N+](C)(C)[O-])[C@H]2O)C(C)(O)C[C@@H](C)C[N+](C)([O-])[C@H](C)[C@@H](O)[C@]1(C)O (stereo partly drawn) [Compound 2] | 25.3 |  |
|  | CC[C@H]1OC(=O)[C@H](C)[C@@H](O[C@H]2C[C@@](C)(OC)[C@@H](O)[C@H](C)O2)[C@H](C)[C@@H](O[C@@H]2O[C@H](C)C[C@H](N(C)C)[C@H]2O)[C@](C)(O)C[C@@H](C)CN(C)[C@H](C)[C@@H](O)[C@]1(C)O [Azithromycin, reference compound] | 40 |  |
|  | CC[C@H]1OC(=O)[C@H](C)[C@@H](O)[C@H](C)[C@@H](O[C@@H]2O[C@H](C)CC[C@H]2O)C(C)(O)C[C@@H](C)CN(C)[C@H](C)[C@@H](O)[C@]1(C)O (stereo partly drawn) [Compound 4] | 16.5 |  |
